Measured values taken from paper PMC4376459, “CXCR3 antagonist VUF10085 binds to an intrahelical site distinct from that of the broad spectrum antagonist TAK-779” (British Journal of Pharmacology, 2015).
Substitutions are numbered along the chain they refer to.

Legend:
WT CXCR3 = biological target: T1, WT CXCR3 (Homo sapiens, UniProt P49682); assay: Whole-cell 125I-CXCL11 binding assay, L1.2 transfectants; details: WT CXCR3 transfectants (Figure 1); read-out: IC50 for displacement of 125I-CXCL11
T1 construct: expressed in transfected cells; host or cells: murine pre-B cell line L1.2, transient transfection by electroporation
T1 sequence (P49682 1-368): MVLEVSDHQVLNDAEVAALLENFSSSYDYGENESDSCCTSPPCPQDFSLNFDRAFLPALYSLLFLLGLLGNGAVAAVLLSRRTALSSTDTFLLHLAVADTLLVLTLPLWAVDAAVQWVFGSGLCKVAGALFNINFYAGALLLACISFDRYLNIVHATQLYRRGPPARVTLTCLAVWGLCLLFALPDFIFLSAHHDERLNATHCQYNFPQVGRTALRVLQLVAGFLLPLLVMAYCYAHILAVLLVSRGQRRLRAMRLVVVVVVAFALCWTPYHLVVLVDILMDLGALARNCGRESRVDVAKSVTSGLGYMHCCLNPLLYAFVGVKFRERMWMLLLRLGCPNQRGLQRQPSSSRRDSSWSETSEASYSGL

D112N-CXCR3 = biological target: T2, D112N-CXCR3 (Homo sapiens, UniProt P49682, D112N); assay: as above; details: D112N-CXCR3 transfectants (Figure 1); read-out: IC50 for displacement of 125I-CXCL11
T2 construct: expressed in transfected cells; host or cells: murine pre-B cell line L1.2, transient transfection
T2 sequence (P49682 1-368 D112N): T1 sequence (P49682 1-368) with D112N

[1] = system: six 'loss of charge' CXCR3 mutants; assay: Chemotaxis assay, panel of charged extracellular residue mutants; format: cell-based, human; details: 30 nM CXCL11, 100 μM TAK-779, versus WT
Experimental: (§1) Assays of chemotactic responsiveness were carried out as previously described (Vaidehi et al., [2009]) using 96-well ChemoTx® plates with 5 μm pores (Neuroprobe, Gaithersburg, MD, USA). Migrating cells were detected by the use of CellTiter Glo® Dye (Promega, Southampton, UK) and resulting luminescence measured using a TopCount scintillation counter (PerkinElmer, Waltham, MA, USA). Basal migration of cells to buffer alone was subtracted from the resulting data, with individual results expressed as a percentage of the total cells applied to the filter. In all experiments, each data point was assayed in duplicate. In every experiment, cells transiently expressing WT CXCR3 were used as a positive control.
We have previously used an alternative panel of six ‘loss of charge’ CXCR3 mutants to determine the counterion for a negatively charged small molecule CXCR3 agonist (Nedjai et al., [2011]). Although these acidic residues lay outside our initially molecular modelling of the TAK-779:CXCR3 interaction, we tested the hypothesis that one or more of these acidic residues may contribute to TAK-779 binding. […]
Figure 6 Mutation of charged extracellular residues has no effect upon the ability of TAK-779 to inhibit chemotaxis in response to CXCL11. Migration of a panel of CXCR3 transfectants to 30 nM CXCL11 in the presence of 100 μM TAK-779 was determined.

CXCR3 F207A = biological target: T3, CXCR3 F207A (Homo sapiens, UniProt P49682, F207A); assay: Chemotaxis assay, L1.2 transfectants migrating to CXCL11; format: cell-based
T3 construct: expressed in transfected cells; host or cells: murine pre-B cell line L1.2, transient transfection
T3 sequence (P49682 1-368 F207A): T1 sequence (P49682 1-368) with F207A
Experimental: (§2) A previously described pcDNA3 plasmid containing human wild type (WT) CXCR3 cDNA with an HA epitope tag encoded at the N terminus (Meiser et al., [2008]) was used as a template for the generation of point mutants by PCR using the QuikChange II site-directed mutagenesis kit (Stratagene, Amsterdam, the Netherlands). All constructs were verified by DNA sequencing (Eurofins MWG Operon, Ebersberg, Germany) before use. L1.2 cells were transiently transfected by electroporation with 1 μg of vector DNA/10^6 cells at 330V, 975μF and incubated overnight in medium supplemented with 10 mM of sodium butyrate to enhance gene expression.
as §1

CXCR3 N132A = biological target: T4, CXCR3 N132A (Homo sapiens, UniProt P49682, N132A); assay: as above; format: cell-based
T4 construct: expressed in transfected cells; host or cells: murine pre-B cell line L1.2, transient transfection
T4 sequence (P49682 1-368 N132A): T1 sequence (P49682 1-368) with N132A
Experimental: as §2, §1

| IC50 (WT CXCR3) | IC50 (D112N-CXCR3) | % of WT chemotaxis to 30 nM CXCL11 (mean ± SEM) (CXCR3 F207A) | % of WT chemotaxis to 30 nM CXCL11 (mean ± SEM) (CXCR3 N132A) | Molecule | ability to inhibit migration to CXCL11 [1] |
| --- | --- | --- | --- | --- | --- |
| 15.6 µM | 17.2 µM | – | – | Cc1ccc(-c2ccc3c(c2)C=C(C(=O)Nc2ccc(C[N+](C)(C)C4CCOCC4)cc2)CCC3)cc1.[Cl-] [TAK-779, N,N-dimethyl-N-[4-[[[2-(4-methylphenyl)-6,7-dihydro-5H-benzocyclohepten-8-yl]-carbonyl]amino]benzyl] tetrahydro-2H-pyran-4-aminium chloride] | not reduced |
| – | – | 0.8 ± 0.8% | 0.7 ± 0.5% | CXCL11: recombinant human chemokine, CXCR3 agonist, purchased from PeproTech | – |
